For 122 molecules, melting point results are on record in a melting point compilation (Tetko et al.).

As usually defined, the melting point is the temperature, or range, at which the solid turns liquid.

On to `Cc1ccc(-c2nn(-c3ccccc3)cc2CO)cc1C`, for which the melting point was in the range of 134 to 136 °C.
As for `CN(C)CCOc1ccc(C(N)=S)cc1`, the figure is 142 to 144 °C.
With `CC(C)(C)c1ccc(C(=O)CC#N)cc1` the figure was 78 to 80 °C; with `CS(=O)(=O)c1ccc(N)cc1`, 132 to 134 °C; with `O=C(NC1CCCC1)c1ccccc1O`, 75 to 77 °C.
`O=C(O)COc1cccc2cccnc12` registered a melting point of 125 to 127 °C.
As for `O=C(Cc1ccc(F)cc1)N1CCNCC1`, the figure is 65 to 67 °C; as for `CC(C)Sc1ccc(C(=O)O)cc1`, 139 to 141 °C.
As for `CC(=O)NC1(c2noc(CCl)n2)CCCC1`, the figure is 74 to 76 °C.
With `CC(C)(C)C(=O)N1CSCC1C(=O)O` (configuration not stated) the figure was 118 to 120 °C; with `CCc1c(C(=O)O)cnn1C(C)(C)C`, 133 to 135 °C; with `O=C(O)CSc1nncn1-c1ccccc1`, 207 to 209 °C.
Molecule `CC(=O)c1cc(C(=O)O)n(C)c1` registered a melting point of 177 to 181 °C.
Turning to `ClCc1ncc(-c2ccc(Cl)cc2)o1`, the melting point lay in the range of 53 to 57 °C.
As for `CNS(=O)(=O)c1cccc(S(=O)(=O)Cl)c1`, the figure is 98 to 100 °C.
As for `Cc1cccc(N2CCN(Cc3ccc(N)cc3)CC2)c1`, the figure is 103 to 105 °C; as for `Fc1ccc(-n2nc(CCl)c3c2CCC3)cc1`, 101 to 103 °C; as for `Cc1ccc(-c2ncco2)cc1N`, 89 to 91 °C.
With `COCCCS(N)(=O)=O` the figure was 41 to 43 °C; with `COC(=O)Nc1cccc(N)c1`, 62 to 64 °C; with `Cc1cccc(C(N)C(=O)O)c1` (configuration not stated), 229 to 231 °C.
Molecule `Nc1cccc2c1CC(O)C2` (configuration not stated) had a melting point of 125 to 127 °C.
As for `Cc1ccc(C)c(OCC(=O)NN)c1`, the figure is 153 to 155 °C.
As for `CC1(c2ccccc2)NC(=O)N(N)C1=O` (configuration not stated), the figure is 169 to 171 °C.
`CC(C)N(C)S(=O)(=O)c1ccc(C(=O)O)cc1` gave a melting point of 176 to 178 °C.
With `CC(C)(C)OC(=O)NC1CC1` the figure was 62 to 64 °C; with `COc1ccccc1-c1cc(N)[nH]n1`, 94 to 96 °C; with `CC1Cc2ccc(Br)cc2C1=O` (configuration not stated), 69 to 71 °C.
Consider `CCc1nnsc1C(=O)O`, for which the melting point was in the range of 125 to 133 °C.
As for `COCCn1nnc(C(=O)O)c1C(F)(F)F`, the figure is 55 to 57 °C; as for `Cc1cc(Br)cc(C)c1NC(=O)CCCCl`, 139 to 141 °C.
As for `Cc1cc(Cl)ccc1OCCCC(=O)NN`, the figure is 37 to 39 °C; as for `O=C(c1cc(Cl)c[nH]1)N1CCCNCC1`, 116 to 118 °C.
With `CN(CC#N)C(=O)c1ccccc1` the figure was 73 to 75 °C.
In turn, `Cc1ccc(C(C)C)c2c1C(=O)CCO2` yielded a melting point of 36 to 38 °C.
As for `NCc1cccc(N)n1`, the figure is 93 to 95 °C.
As for `NCc1ccc(-c2cccnc2)cc1`, the figure is 66 to 68 °C.
As for `COC(=O)c1cc(N)c(OC)c(OC)c1`, the figure is 127 to 129 °C; as for `CCN(CC)S(=O)(=O)c1ccc2c(c1)CCCN2`, 131 to 133 °C; as for `CCN(CC)C(=O)N1CCC(C(=O)O)CC1`, 96 to 98 °C.
`O=[N+]([O-])c1ccc(Cl)c(Br)c1` showed a melting point of 57 to 59 °C.
As for `Cc1ccc(C2CC2C(=O)O)cc1C` (configuration not stated), the figure is 97 to 99 °C.
Molecule `Nc1ccccc1S(=O)(=O)C(F)(F)F` had a melting point of 47 to 49 °C.
As for `NC(=O)C1CCCN1Cc1ccccc1N` (configuration not stated), the figure is 121 to 123 °C; as for `NNC(=O)c1ccoc1`, 128 to 130 °C.
In turn, `Cc1ccc(C)n1-c1ccc(CC(=O)O)cc1` returned a melting point of 106 to 108 °C.
For the molecule `Oc1ccc(OCc2cccnc2)cc1`, the melting point is 157 to 159 °C.
With `Oc1c(Cl)c(F)nc(F)c1Cl` the figure was 102 to 104 °C.
With `Cc1cc(C)n2cnc(C(N)=O)c2n1` the figure was 303 to 305 °C; with `Cc1ccsc1C(=O)CC#N`, 114 to 116 °C.
As for `O=C(O)CCNC(=O)c1cccs1`, the figure is 220 to 222 °C.
With `CC(Nc1ncc(C(=O)O)cc1Cl)c1cccnc1` (configuration not stated), the melting point lay within 184 to 186 °C.
As for `N#CCC(=O)c1ccsc1`, the figure is 92 to 94 °C; as for `COc1ccccc1-c1cc(C(=O)O)c2c(C)noc2n1`, 229 to 231 °C; as for `NC(=O)c1cc(C(=O)O)c[nH]1`, 344 to 346 °C.
With `O=C(O)CNCc1cccc(Br)c1` the figure was 213 to 215 °C; with `Cc1nc(CN)oc1-c1ccc(Cl)cc1`, 69 to 71 °C.
In the case of `Cc1cc(S(=O)(=O)Cl)sc1C(=O)O`, the melting point was 194 to 196 °C.
As for `Cc1cc(NC(=O)OCC(F)(F)F)n(CCC#N)n1`, the figure is 128 to 130 °C; as for `O=C(O)Cn1cnc([N+](=O)[O-])n1`, 187 to 189 °C.
Regarding `CCC(CO)NC(=O)c1ccc(N)cc1` (configuration not stated), the melting point was in the range of 153 to 155 °C.
As for `Cc1cc(C(C#N)c2ccc(Cl)cc2)c(Cl)cc1N` (configuration not stated), the figure is 147 to 153 °C.
As for `CN(C)C(C(=O)O)c1cc(Cl)cc(Cl)c1` (configuration not stated), the figure is 170 to 172 °C; as for `COC(=O)c1c(C)[nH]c(C(=O)CCl)c1C`, 166 to 168 °C.
`O=C(COc1ccccc1)Nc1cc(Cl)ccc1C(=O)O` registered a melting point of 247 to 249 °C.
As for `Cc1cc(C)cc(-n2ncc(C=O)n2)c1`, the melting point lay within 64 to 66 °C.
As for `O=C1CCc2cc(C(=O)CCl)c(F)cc2N1`, the figure is 257 to 259 °C; as for `COc1cc(/C=C/C(=O)O)ccc1OCc1c(C)noc1C`, 110 to 112 °C; as for `O=Cc1ccc(-c2ccccc2)s1`, 90 to 92 °C.
With `c1ccc2c(-c3nc4ccccc4[nH]3)cccc2c1` the figure was 264 to 266 °C; with `Sc1nc2cc(Cl)ccc2n1CCOc1ccccc1`, 182 to 184 °C; with `Oc1ccccc1OCc1ccc(F)cc1`, 55 to 57 °C.
As for `CCN(Cc1ccccc1)S(=O)(=O)c1cc(C(=O)O)ccc1OC`, the figure is 102 to 105 °C.
Turning to `O=C(O)CCC(=O)N1CCSc2ccccc21`, the melting point lay within 134 to 136 °C.
`O=C(c1cc(Cl)ccn1)N1CCCCC1` displayed a melting point of 60 to 62 °C.
`COc1ccc(O)c(C(C)(C)C)c1`: the melting point is 61 to 63 °C.
For `O=C(NC1CCNCC1)c1ccccc1`, the melting point lay within 138 to 140 °C.
With `c1ccc2oc(-c3nn[nH]n3)cc2c1` the figure was 212 to 214 °C; with `COCCCN1C(=O)c2ccc(C(=O)O)cc2C1=O`, 147 to 149 °C; with `O=c1[nH]c(Nc2ccccc2)cc2ccccc12`, 191 to 193 °C.
As for `COc1ccc(S(N)(=O)=O)cc1C`, the figure is 137 to 139 °C; as for `COC(=O)c1cc(C)nc(SC)n1`, 116 to 118 °C.
As for `CC(C)(C)n1[nH]c(-c2ccccc2)cc1=N`, the figure is 103 to 105 °C; as for `C#Cc1cccc(NC(=O)CCl)c1`, 120 to 122 °C; as for `Cc1nc(S(=O)(=O)Oc2c(F)c(F)c(F)c(F)c2F)sc1C`, 98 to 100 °C.
The molecule `Cc1ccc(Cl)c(N)c1C(=O)O` came in with a melting point of 119 to 121 °C.
The molecule `CC(=O)Nc1c[nH]c(C)c1C(=O)O` returned a melting point of 183 to 185 °C.
`CC(C)NC(=O)C1CCCC(N)C1` (configuration not stated): the melting point lay within 126 to 128 °C.
With `O=C(O)c1n[nH]c2ccc(I)cc12` the figure was 285 to 287 °C; with `CCNC1CCc2[nH]c3ccc(Cl)cc3c2C1` (configuration not stated), 174 to 176 °C.
As for `O=C(O)c1cc(O)nc2ccc(Br)cc12`, the figure is 355 to 357 °C; as for `NC(=O)C1CCCN(C(=O)CCl)C1` (configuration not stated), 124 to 126 °C.
As for `O=C(O)Cc1ccc(NC(=O)c2cc3ccccc3o2)cc1`, the figure is 189 to 191 °C; as for `CC(=O)c1ccc(NC(=O)c2ccc(C#N)cc2)cc1`, 228 to 230 °C.
Molecule `CCCn1c(=O)n(CC(=O)O)c2ccccc21` showed a melting point of 173 to 175 °C.
For `Cc1cc(C)c2cc(C(=O)O)[nH]c2c1C`, the melting point fell in the range of 227 to 229 °C.
For the molecule `Cc1ccc(S(=O)(=O)N2CCCC(C(=O)O)C2)cc1` (configuration not stated), the melting point lay in the range of 149 to 151 °C.
With `COC(=O)Cn1ncc2c(=O)[nH]cnc21` the figure was 212 to 214 °C; with `O=C(NCCCCl)OCc1ccccc1`, 30 to 32 °C; with `O=C(O)CCn1cnc2sc3c(c2c1=O)CCCC3`, 193 to 195 °C.
With `O=C(O)C1CCCN(S(=O)(=O)c2ccc([N+](=O)[O-])cc2)C1` (configuration not stated), the melting point lay within 221 to 223 °C.
Turning to `O=C(O)c1ccc(=O)n(CCOc2ccccc2)n1`, the melting point is 138 to 140 °C.
As for `CC(C)(C)OC(=O)N1CCCCC1(C)C(=O)O` (configuration not stated), the figure is 92 to 94 °C; as for `O=C(O)c1cc(-c2ccccc2Cl)nc2ccccc12`, 273 to 275 °C; as for `Nc1ccc(S)c(Cl)c1`, 78 to 80 °C.
As for `O=C1CC2CCCC(C1)N2Cc1ccccc1`, the figure is 66 to 68 °C; as for `Cc1cc(C(C)(C)C)cc(C)c1CC#N`, 84 to 86 °C.
With `N#Cc1cnc2c(OC(F)F)cccc2c1Cl` the figure was 120 to 122 °C; with `O=C(O)/C=C/c1cc(Cl)c2c(c1)OCO2`, 259 to 261 °C; with `CS(=O)(=O)Nc1cc(F)ccc1C(=O)O`, 205 to 207 °C.
As for `COC(=O)Cn1cnc(C#N)n1`, the melting point was in the range of 53 to 55 °C.
Molecule `NC(=O)C1CCCCS1` (configuration not stated) showed a melting point of 164 to 166 °C.
As for `CCOc1ccccc1C(=O)N1CCNCC1`, the figure is 82 to 84 °C; as for `Cc1ccc(NC(=O)C(C)Cl)cc1F` (configuration not stated), 102 to 104 °C.
For the molecule `O=C(O)CCCc1nc2ccccc2s1`, the melting point was in the range of 148 to 150 °C.
As for `O=S(=O)(Cl)c1c(Cl)cc(F)cc1Br`, the figure is 55 to 57 °C; as for `c1nnc(C2CCNCC2)[nH]1`, 208 to 210 °C.
With `NCCc1nc2ccccc2s1` the figure was 47 to 49 °C; with `NC(=S)c1ncccn1`, 197 to 199 °C.
With `O=C(O)c1cc(-c2ccc(F)cc2)nc2onc(C3CC3)c12` the figure was 229 to 231 °C; with `CC(=O)OCC(N)=S`, 75 to 77 °C.
In the case of `O=C(NC1CC1)n1ccnc1`, the melting point was in the range of 89 to 91 °C.
